The record followed here is ChEMBL document CHEMBL1145721, “The secalosides, novel tumor cell growth inhibitory glycosides from a pollen extract” (J Nat Prod, 1997).

Calls of active or inactive are those of the source. No cut-off for these calls is given here. A value given as a limit tells only on which side of the number the result lay.

The test system of experiment [1] is CCRF S-180. The experiment can be described thus: Antitumor activity against mouse S180 cells implanted in mouse in presence of cyclophosphamide administered 24 hrs prior to implantation. Format: functional, cell-based.
Experiment [2] has as its system CCRF S-180. The experiment can be described thus: In vivo antitumor activity against mouse S180 cells implanted in mouse assessed as cell growth at 40 ug/mouse for 10 days relative to control. Format: functional.
The test system of experiment [3] is CCRF S-180. The experiment can be described thus: In vivo antitumor activity against mouse S180 cells implanted in mouse after 10 days. Format: functional, organism-based.
For the next experiment, the system named is L1210. The experiment can be described thus: Cytotoxicity against mouse L1210 cells. Format: functional, cell-based.
In a further experiment the test system is KB. The experiment can be described thus: Cytotoxicity against human KB cells. The format is functional, cell-based.
In experiment [4] the test system is CCRF S-180. The experiment is described as follows: In vivo antitumor activity against mouse S180 cells implanted in mouse assessed as cell growth at 20 ug/mouse for 10 days relative to control. Format: functional.
The test system of experiment [5] is CCRF S-180. The experiment is described as follows: In vivo antitumor activity against mouse S180 cells implanted in mouse assessed as cell growth at 60 ug/mouse for 10 days relative to control. Format: functional.
In experiment [6] the test system is CCRF S-180. The experiment is described as follows: Cytotoxicity against mouse S180 cells. The format is functional, cell-based.
In experiment [7] the test system is CCRF S-180. The experiment is described as follows: In vivo antitumor activity against mouse S180 cells implanted in mouse assessed as cell growth at 5 ug/mouse for 10 days relative to control. The format is functional.
Experiment [8] has as its system CCRF S-180. The experiment is described as follows: In vivo antitumor activity against mouse S180 cells implanted in mouse assessed as cell growth at 10 ug/mouse for 10 days relative to control. Format: functional.
Experiment [9] deals with CCRF S-180. The experiment can be described thus: In vivo antitumor activity against mouse S180 cells implanted in mouse assessed as cell growth at 2.5 ug/mouse for 10 days relative to control. The format is functional.
The subject of experiment [10] is CCRF S-180. The experiment can be described thus: In vivo antitumor activity against mouse S180 cells implanted in mouse assessed as cell growth at 0.625 ug/mouse for 10 days relative to control. Format: functional.
Experiment [11] relates to CCRF S-180. The experiment can be described thus: In vivo antitumor activity against mouse S180 cells implanted in mouse assessed as cell growth at 1.25 ug/mouse for 10 days relative to control. The format is functional.

For orientation: T/C means the ratio of treated to control. On to `COc1cc(C2c3cc(O[C@@H]4O[C@H](COC(=O)CC5C(=O)Nc6ccccc65)[C@@H](O)[C@H](O)[C@H]4O)c(O)cc3C3C(=O)O[C@H]4[C@H](O)[C@@H](COC(=O)C32)O[C@@]4(CO)O[C@H]2O[C@H](CO)[C@@H](O)[C@H](O)[C@H]2O)ccc1O` (stereo not given in full) [SECALOSDIE A/B], for which the result in the experiment with CCRF S-180 [1], in the experiment with L1210, in the experiment with KB and in the experiment with CCRF S-180 [6] was inactive. Also, the T/C stood at 2% with CCRF S-180 [2]; 17% with CCRF S-180 [4]; 0% in the experiment with CCRF S-180 [5]; 45% with CCRF S-180 [7]; 24% with CCRF S-180 [8]; 70% with CCRF S-180 [9]. For the same compound, the IC50 in the experiment on CCRF S-180 [3] is 5 µg.
For `O=C(O)CC1C(=O)Nc2ccccc21` (stereo not given), the IC50 entry in the experiment on CCRF S-180 [3] was “<= 1 ug”. Further, the T/C in the experiment with CCRF S-180 [10] turned out to be 36%; in the experiment with CCRF S-180 [4] it was 0%; in the experiment on CCRF S-180 [7], 0%; in the experiment on CCRF S-180 [11], 16%; with CCRF S-180 [8] it was 0%; in the experiment with CCRF S-180 [9] it was 0%.
With `O=C1CC(C(=O)O)c2ccccc2N1` (racemic), the IC50 entry with CCRF S-180 [3] is given as “<= 1 ug”. Besides, the T/C was found to be 62% in the experiment on CCRF S-180 [10]; 0% with CCRF S-180 [4]; 0% with CCRF S-180 [7]; 30% in the experiment with CCRF S-180 [11]; 0% with CCRF S-180 [8]; 0% in the experiment on CCRF S-180 [9].
